Patent US20230293458A1, “MULTIBIOTIC AGENTS AND METHODS OF USING THE SAME” (Flagship Pioneering Innovations V, Inc., priority 2017, published 2023)

Columns and labels:
[1] = Stability of multibiotic agents in Simulated Gastric Fluid (SGF); assay type: in vitro ADME; settings: simulated gastric fluid pH 1.6 with pepsin, 37° C., 1 μM
Procedure: Assay 3. Stability of multibiotic agents in Simulated Gastric Fluid (SGF). This assay can be used to assess the stability of a multibiotic agent in a stomach.
Medium was prepared by dissolving 2 g of sodium chloride in 0.6 L in ultrapure water (MilliQ®, Millipore Sigma, Darmstadt, Germany). The pH was adjusted to 1.6 with 1 N hydrochloric acid, and the volume was then adjusted to 1 L with purified water.
60 mg FaSSIF powder (Biorelevant™, London, UK) were dissolved in 500 mL buffer (above). Pepsin was added (0.1 mg/mL) (Millipore Sigma, Darmstadt, Germany), and the solution was stirred. The resulting SGF media were used fresh for each experiment.
Test compounds were dissolved in DMSO stock to 1 mM. An aliquot of the DMSO stock solution was removed and diluted in the SGF Media in 15 mL falcon tubes to generate a total compound concentration of 1 μM. A 1 mL aliquot was immediately removed and diluted once with 1 volume of acetonitrile for T0 timepoint. The mixture was sealed and mixed at 37° C. in an incubator. Aliquots (1 mL) were removed at regular intervals and immediately quenched by the addition of 1 volume of acetonitrile. The resulting samples were analyzed by LC/MS to determine degradation rates in SGF.

[2] = Stability of multibiotic agents in Simulated Intestinal Fluid (SIF); assay type: in vitro ADME; settings: simulated intestinal fluid pH 6.7 with pancreatin, 37° C., 1 μM
Procedure: Assay 2. Stability of multibiotic agents in Simulated Intestinal Fluid (SIF). This assay can be used to assess the stability of a multibiotic agent in a small intestine. Phosphate buffer was prepared by dissolving 0.42 g of sodium hydroxide pellets and 3.95 g of monobasic sodium phosphate monohydrate and 6.19 g of sodium chloride in ultrapure water (MilliQ®, Millipore Sigma, Darmstadt, Germany). The pH was adjusted to 6.7 using aq. HCl and aq. NaOH, as necessary, and the solution was diluted with ultrapure water to produce 1 L of the pH 6.7 buffer. 112 mg FaSSIF powder (Biorelevant™, London, UK) was dissolved in 50 mL of the pH 6.7 buffer. 2 to 3 mL of the resulting solution were then added to 500 mg pancreatin (Millipore Sigma, Darmstadt, Germany). The resulting mixture was agitated by finger tapping the vessel containing the mixture until milky suspension formed. At this time, the remainder of the 50 mL FaSSiF/pH 6.7 buffer solution was added. The resulting suspension was flipped upside down 10 times to produce SIF, which was used fresh. Test compounds are dissolved in DMSO stock to 1 mM. An aliquot of the DMSO stock solution is removed and diluted in the SIF media in 15 mL falcon tubes to produce a mixture with a tested compound concentration of 1 μM. A 1 mL aliquot is immediately removed and diluted once with 1 volume of acetonitrile for T0 timepoint. The mixture is sealed and agitated at 37° C. in an incubator. Aliquots (1 mL) are removed at regular intervals and immediately quenched by the addition of 1 volume of acetonitrile. The resulting samples are analyzed by LC/MS to determine degradation rates.

SMILES	Assay 2 (SGF) (% Remaining @ 4 hours) [1]	Assay 3 (SIF) (% @ Remaining 4 hours) [2]
CC(=O)Oc1cc(OC(C)=O)c2c(=O)c(OC(C)=O)c(-c3ccc(OC(C)=O)c(OC(C)=O)c3)oc2c1 [Example 74, [2-acetoxy-4-(3,5,7-triacetoxy-4-oxo-chromen-2-yl)phenyl] acetate]	C (>75% of the tested compound remaining)	A (<25% of the tested compound remaining)
CCCC(=O)Oc1cc(OC(=O)CCC)c2c(=O)c(OC(=O)CCC)c(-c3ccc(OC(=O)CCC)c(OC(=O)CCC)c3)oc2c1 [Example 75, [2-butanoyloxy-4-[3,5,7-tri(butanoyloxy)-4-oxo-chromen-2-yl]phenyl]butanoate]	C (>75% of the tested compound remaining)	B (25-75% of the tested compound remaining)
C[C@@H](O)CC(=O)O[C@H]1CO[C@H]2[C@@H]1OC[C@H]2OC(=O)C[C@@H](C)O [Example 78, [(3S,3aR,6R,6aR)-6-[(3R)-3-hydroxybutanoyl]oxy-2,3,3a,5,6,6a-hexahydrofuro[3,2-b]furan-3-yl] (3R)-3-hydroxybutanoate]	C (>75% of the tested compound remaining)	B (25-75% of the tested compound remaining)
CC(=O)OCc1cnc(C)c(O)c1COC(C)=O [Example 80, [4-(acetoxymethyl)-5-hydroxy-6-methyl-3-pyridyl] methyl acetate]	C (>75% of the tested compound remaining)	C (>75% of the tested compound remaining)
CC(=O)OC[C@H](OC(C)=O)[C@@H](COC(C)=O)OC(C)=O [Example 81, (2R, 3S)-butane-1,2,3,4-tetrayl tetraacetate]	C (>75% of the tested compound remaining)	C (>75% of the tested compound remaining)
CCCC(=O)OC[C@H](OC(=O)CCC)[C@@H](COC(=O)CCC)OC(=O)CCC [Example 82, (2R,3S)-butane-1,2,3,4-tetrayl tetrabutyrate]	C (>75% of the tested compound remaining)	B (25-75% of the tested compound remaining)
CO[C@@H]1[C@@H](OC(C)=O)[C@@H](OC(C)=O)[C@H](OC(C)=O)[C@H](OC(C)=O)[C@H]1OC(C)=O [Example 84, (1R,2R,3R,4S,5R,6R)-2,3,4,6-tetrakis(acetyloxy)-5-methoxycyclohexyl acetate]	C (>75% of the tested compound remaining)	C (>75% of the tested compound remaining)
CCCC(=O)O[C@H]1[C@H](OC(=O)CCC)[C@H](OC(=O)CCC)[C@@H](OC)[C@H](OC(=O)CCC)[C@H]1OC(=O)CCC [Example 85, (1R,2R,3R,4S,5R,6R)-2,3,4,6-tetrakis(butanoyloxy)-5-methoxycyclohexyl butanoate]	C (>75% of the tested compound remaining)	C (>75% of the tested compound remaining)
CC(=O)OC[C@@H](OC(C)=O)[C@H]1OC[C@H](OC(C)=O)[C@H]1OC(C)=O [Example 86, [(2R)-2-acetoxy-2-[(2R,3R,4S)-3,4-diacetoxytetrahydrofuran-2-yl]ethyl] acetate]	C (>75% of the tested compound remaining)	C (>75% of the tested compound remaining)
CCCC(=O)OC[C@@H](OC(=O)CCC)[C@H]1OC[C@H](OC(=O)CCC)[C@H]1OC(=O)CCC [Example 87, [(2R)-2-butanoyloxy-2-[(2R,3R,4S)-3,4-di (butanoyloxy)tetrahydrofuran-2-yl]ethyl] butanoate]	C (>75% of the tested compound remaining)	C (>75% of the tested compound remaining)
CC(=O)O[C@H]1CO[C@H]2[C@@H]1OC[C@H]2OC(C)=O [Example 88, [(3S,3aR,6R,6aR)-6-acetoxy-2,3,3a,5,6,6a-hexahydrofuro[3,2-b]furan-3-yl] acetate]	C (>75% of the tested compound remaining)	C (>75% of the tested compound remaining)
CC(=O)OCCCNC(=O)[C@H](OC(C)=O)C(C)(C)COC(C)=O [Example 89, 3-[[(2R)-2,4-diacetoxy-3,3-dimethyl-butanoyl]amino]propyl acetate]	C (>75% of the tested compound remaining)	C (>75% of the tested compound remaining)
CCCC(=O)OCCCNC(=O)[C@H](OC(=O)CCC)C(C)(C)COC(=O)CCC [Example 90, 3-[[(2R)-2,4-di(butanoyloxy)-3,3-dimethyl-butanoyl]amino] propyl butanoate]	C (>75% of the tested compound remaining)	A (<25% of the tested compound remaining)
CCCC(=O)O[C@H](C)CC(=O)OCCCNC(=O)[C@H](OC(=O)C[C@@H](C)OC(=O)CCC)C(C)(C)COC(=O)C[C@@H](C)OC(=O)CCC [Example 91, 3-[[(2R)-2,4-bis[[(3R)-3-butanoyloxybutanoyl]oxy]-3,3-dimethyl-butanoyl]amino]propyl (3R)-3-butanoyloxybutanoate]	C (>75% of the tested compound remaining)	A (<25% of the tested compound remaining)
CC(C)(COC(=O)Cc1c[nH]c2ccccc12)[C@@H](OC(=O)Cc1c[nH]c2ccccc12)C(=O)NCCCOC(=O)Cc1c[nH]c2ccccc12 [Example 92, 3-[[(2R)-2,4-bis[[2-(1H-indol-3-yl)acetyl]oxy]-3,3-dimethyl-butanoyl]amino]propyl 2-(1H-indol-3-yl)acetate]	C (>75% of the tested compound remaining)	C (>75% of the tested compound remaining)
CC(=O)OCC(C)(C)[C@@H](OC(C)=O)C(=O)NCCC(N)=O [Example 94, [(3R)-3-acetoxy-4-[(3-amino-3-oxo-propyl)amino]-2,2-dimethyl-4-oxo-butyl] acetate]	C (>75% of the tested compound remaining)	C (>75% of the tested compound remaining)
CCCC(=O)OCC(C)(C)[C@@H](OC(=O)CCC)C(=O)NCCC(N)=O [Example 95, [(3R)-4-[(3-amino-3-oxo-propyl)amino]-3-butanoyloxy-2,2-dimethyl-4-oxo-butyl] butanoate]	C (>75% of the tested compound remaining)	C (>75% of the tested compound remaining)
CCCC(=O)O[C@H](C)CC(=O)OCC(C)(C)[C@@H](OC(=O)C[C@@H](C)OC(=O)CCC)C(=O)NCCC(N)=O [Example 96, [(3R)-4-[(3-amino-3-oxo-propyl)amino]-3-[(3R)-3-butanoyloxybutanoyl]oxy-2,2-dimethyl-4-oxo-butyl] (3R)-3-butanoyloxybutanoate]	C (>75% of the tested compound remaining)	C (>75% of the tested compound remaining)
CC(C)(COC(=O)Cc1c[nH]c2ccccc12)[C@@H](OC(=O)Cc1c[nH]c2ccccc12)C(=O)NCCC(N)=O [Example 97, [(3R)-4-[(3-amino-3-oxo-propyl)amino]-3-[2-(1H-indol-3-yl)acetyl]oxy-2,2-dimethyl-4-oxo-butyl] 2-(1H-indol-3-yl)acetate]	C (>75% of the tested compound remaining)	C (>75% of the tested compound remaining)
